Experimental data: patent US11780832B2, “Lactivicin compounds, their preparation and use as antibacterial agents” (priority 2021, dated 2023)
≈ marks a conversion by molar mass, not a printed value.

Experiments:
Type in all cases: cell-based
[1] = test system: Escherichia coli Isogenic TEM-10; experiment: MIC, CLSI broth microdilution
Procedure, shortened: (§1)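 Inhibitory concentrations were measured in broth following CLSI microdilution rules. Test organisms, each with known resistance determinants, were inoculated at a final 5×10^5 CFU/mL into wells holding compound at final concentrations from 16 down to 0.0125 μg/mL.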

[2] = test system: Escherichia coli Isogenic TEM-26; experiment: MIC, CLSI broth microdilution
Procedure, shortened: as §1

[3] = test system: Escherichia coli pSMART_Ecloacae_AmpC; experiment: MIC, CLSI broth microdilution
Procedure, shortened: as §1

[4] = test system: Citrobacter freundii species complex Elevated AmpC; experiment: MIC against Elevated AmpC producing strains, compound alone; details: row r16
Procedure: (§2) Gram-negative and Gram-positive bacterial strains used during the in vitro minimum inhibitory concentration (MIC) determination were obtained either from the American Type Culture Collection (ATCC) or from clinical specimens. All strains were characterized genotypically and the respective antibiotic resistance markers for each strain were identified.
(§3) Isolates were sub-cultured onto appropriate media and stocked in skim milk at −80° C. Following two subcultures from frozen stock, in vitro antimicrobial susceptibility testing was performed using the Clinical and Laboratory Standards Institute (CLSI) broth microdilution method. Briefly, fresh cultures were suspended in culture media to give a final stock inoculum size of 5×10^7 colony forming units per milliliter of broth (CFU/mL). Test compounds were prepared at a stock solution concentration equal to 128 μg/mL, then diluted to give a final an initial working concentration of 32 μg/mL. 100 μL of the stock solutions were added to the first wells in a 96-well plate and were then diluted using a 2-fold dilution method to give a range of 32-0.025 μg/mL. 100 μL of the bacterial suspensions were then added to the 96-well plates to give a final working inoculum size of 5×10^5 CFU/mL. The final compound concentration range was 16-0.0125 μg/mL. […] MICs for comparator agents were determined using custom-designed, in-house prepared 96-well broth microdilution panels.

[5] = test system: Enterobacter cloacae species complex Elevated AmpC; experiment: as above
Procedure: as §2, §3

[6] = test system: Escherichia coli Elevated AmpC; experiment: as above
Procedure: as §2, §3

[7] = test system: Enterobacter cloacae species complex Elevated AmpC; experiment: Synergistic activity: MIC in the presence of Avibactam
Procedure: as §3
(§4) The same method used to test the activity of the claimed compounds was used to determine their synergistic activity when combined with a β-lactamase inhibitor except that either a fixed concentration or fixed ratio of a β-lactamase inhibitor was added to the 96-well plates prior to adding the bacteria cultures. Synergistic activity was defined as the reduction of MIC of a given compound when tested using the β-lactamase inhibitor versus testing the compound in the absence of a β-lactamase inhibitor.

[8] = test system: Escherichia coli Elevated AmpC; experiment: as above
Procedure: as §3, §4

[9] = test system: Proteus mirabilis CMY-DHA; experiment: as above; details: row r36, in the presence of Avibactam @ 4 μg/mL
Procedure: as §3, §4

[10] = test system: Escherichia coli Empty pSMART plasmid; experiment: MIC, CLSI broth microdilution
Procedure, shortened: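 Broth microdilution following CLSI guidance was used to obtain MICs. Bacteria, recovered through two passages from skim-milk stocks held at −80 °C, were exposed to doubling dilutions of compound (final 16-0.0125 μg/mL).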

[11] = in the presence of Avibactam @ 4 μg/mL
[12] = strain of row r7, in the presence of Avibactam @ 4 μg/mL
[13] = strain of row r20, in the presence of Avibactam @ 4 μg/mL
[14] = strain of row r10, in the presence of Avibactam @ 4 μg/mL
[15] = strain of row r11, in the presence of Avibactam @ 4 μg/mL
[16] = strain of row r12, in the presence of Avibactam @ 4 μg/mL
[17] = strain of row r13, in the presence of Avibactam @ 4 μg/mL
[18] = strain of row r14, in the presence of Avibactam @ 4 μg/mL
[19] = strain of row r15, in the presence of Avibactam @ 4 μg/mL

Row | SMILES | MIC [4] | MIC [5] | MIC ([5]; strain of row r7) | MIC ([5]; strain of row r20) | MIC ([6]; strain of row r10) | MIC ([6]; strain of row r11) | MIC ([6]; strain of row r12) | MIC ([6]; strain of row r13) | MIC ([6]; strain of row r14) | MIC ([6]; strain of row r15) | MIC [7, 11] | MIC [7, 12] | MIC [7, 13] | MIC [8, 14] | MIC [8, 15] | MIC [8, 16] | MIC [8, 17] | MIC [8, 18] | MIC [8, 19] | MIC [9] | other results
1 | Nc1nc(/C(=N/OC2(C(=O)O)CC2)C(=O)N[C@H]2CON(C3(C(=O)O)C[C@H](N4C(=O)c5cc(O)c(O)cc5C4=O)C(=O)O3)C2=O)cs1 (stereo partly drawn) [Cmpd 1, (4S)-2-[(4S)-4-{[(2Z)-2-(2-amino-1,3-thiazol-4-yl)-2-{[(1-carboxycyclopropyl)oxy]imino}acetyl]amino}-3-oxo-1,2-oxazolidin-2-yl]-4-(5,6-dihydroxy-1,3-dioxo-1,3-dihydro-2H-isoindol-2-yl)-5-oxooxolane-2-carboxylic acid] | 0.5 µg/mL (≈ 0.757 µM) | 0.5 µg/mL (≈ 0.757 µM) | 2 µg/mL (≈ 3.03 µM) | 0.25 µg/mL (≈ 0.378 µM) | 0.015 µg/mL (≈ 0.0227 µM) | 0.25 µg/mL (≈ 0.378 µM) | 0.5 µg/mL (≈ 0.757 µM) | 0.06 µg/mL (≈ 0.0908 µM) | 0.06 µg/mL (≈ 0.0908 µM) | 0.12 µg/mL (≈ 0.182 µM) | 0.06 µg/mL | 0.12 µg/mL | <=0.008 μg/mL | <=0.008 μg/mL | <=0.008 μg/mL | 0.015 µg/mL | <=0.008 μg/mL | <=0.008 μg/mL | 0.06 µg/mL | 0.03 µg/mL | MIC [1]: 0.0149 µg/mL (≈ 0.0226 µM); MIC [2]: 0.0149 µg/mL (≈ 0.0226 µM); MIC [3]: 0.03 µg/mL (≈ 0.0454 µM)
2 | Nc1nc(/C(=N/OC2(C(=O)O)CCC(F)(F)CC2)C(=O)N[C@H]2CON(C3(C(=O)O)C[C@H](N4C(=O)c5cc(O)c(O)cc5C4=O)C(=O)O3)C2=O)cs1 (stereo partly drawn) [Cmpd 10, (4S)-2-[(4S)-4-{[(2Z)-2-(2-amino-1,3-thiazol-4-yl)-2-{[(1-carboxy-4,4-difluorocyclohexyl)oxy]imino}acetyl]amino}-3-oxo-1,2-oxazolidin-2-yl]-4-(5,6-dihydroxy-1,3-dioxo-1,3-dihydro-2H-isoindol-2-yl)-5-oxooxolane-2-carboxylic acid] | 0.25 µg/mL (≈ 0.338 µM) | 0.5 µg/mL (≈ 0.677 µM) | 4 µg/mL (≈ 5.42 µM) | 0.12 µg/mL (≈ 0.162 µM) | 0.015 µg/mL (≈ 0.0203 µM) | 0.12 µg/mL (≈ 0.162 µM) | 0.12 µg/mL (≈ 0.162 µM) | 0.03 µg/mL (≈ 0.0406 µM) | 0.03 µg/mL (≈ 0.0406 µM) | 0.25 µg/mL (≈ 0.338 µM) | 0.06 µg/mL | 0.12 µg/mL | <=0.008 μg/mL | <=0.008 μg/mL | 0.03 µg/mL | 0.03 µg/mL | <=0.008 μg/mL | <=0.008 μg/mL | 0.06 µg/mL | 0.5 µg/mL | MIC [10]: ≤ 0.015 µg/mL
3 | Nc1nc(/C(=N/OC2(C(=O)O)CCOCC2)C(=O)N[C@H]2CON(C3(C(=O)O)C[C@H](N4C(=O)c5cc(O)c(O)cc5C4=O)C(=O)O3)C2=O)cs1 (stereo partly drawn) [Cmpd 8, 4-({(Z)-[1-(2-amino-1,3-thiazol-4-yl)-2-({(4S)-2-[(4S)-2-carboxy-4-(5,6-dihydroxy-1,3-dioxo-1,3-dihydro-2H-isoindol-2-yl)-5-oxooxolan-2-yl]-3-oxo-1,2-oxazolidin-4-yl}amino)-2-oxoethylidene]amino}oxy)oxane-4-carboxylic acid] | 0.25 µg/mL (≈ 0.355 µM) | 0.5 µg/mL (≈ 0.71 µM) | 2 µg/mL (≈ 2.84 µM) | 0.12 µg/mL (≈ 0.17 µM) | 0.015 µg/mL (≈ 0.0213 µM) | 0.12 µg/mL (≈ 0.17 µM) | 0.25 µg/mL (≈ 0.355 µM) | 0.03 µg/mL (≈ 0.0426 µM) | 0.06 µg/mL (≈ 0.0852 µM) | 0.12 µg/mL (≈ 0.17 µM) | 0.06 µg/mL | 0.12 µg/mL | <=0.008 μg/mL | <=0.008 μg/mL | 0.03 µg/mL | 0.03 µg/mL | <=0.008 μg/mL | <=0.008 μg/mL | 0.06 µg/mL | 0.5 µg/mL | MIC [1]: 0.0149 µg/mL (≈ 0.0211 µM); MIC [2]: 0.0149 µg/mL (≈ 0.0211 µM)
